Laboratory results as given in patent publication US12061143B2, “Methods for rapid determinations of antibiotic susceptibility phenotypes” (priority 2018, dated 2024).

Key:
Assay type in all cases: cell-based
K. pneumoniae Mu55 = assay: MIC by broth microdilution AST
Procedure: (§1) Varied counts of bacteria were mixed with human blood and diluted 1:9 (v/v) with bacterial growth medium to desired bacterial concentrations (<10 CFU/mL final solution) and plated to independently confirm CFU/mL blood. Saponin was immediately added and the samples shaken for 15 minutes to achieve selective blood cell lysis. After hemolysis, bacteria were spun down and washed with PBS. The pellets were resuspended in bacterial growth medium and incubated at 37° C. for 2 hours, followed by another 3-hour incubation with antibiotics at various fractions of the minimum inhibition concentration (MIC, as independently determined by microdilution from the pure starting culture, Table 1) for sensitive strains or at the CLSI MIC resistant breakpoints^(12) for the highly resistant strains. Changes in scattered light signals largely resulting from bacterial growth inhibition were monitored by flow cytometry, and the difference in the 2-D scatter histograms with and without antibiotic treatment was quantified with PB-sQF statistics.^(1) Using PB-sQF, distance was calculated for each antibiotic concentration relative to its own no-antibiotic control and expressed as “fold distance” relative to the 99% confidence limit distance between the no-antibiotic control and the sensitive breakpoint. This allowed comparison of fold distances among all samples as each is individually paired to its own control, as is each replicate.
(§2) All clinical isolates (E. coli strains Mu14S and Mu890, K. pneumoniae strains Mu670 and Mu55, A. nosocomialis strains M2) were obtained from the Georgia Emerging Infection Program (GEIP). The MIC of each isolate was determined by a clinical microbiology laboratory using post blood culture automated AST and confirmed using broth microdilution in our laboratory. The MICs of each strain were measured to be as follows. For A. nosocomialis strain M2, 1 μg/mL tetracycline, 2 μg/mL gentamicin, and >1024 μg/mL ampicillin. For E. coli strain Mu890, 1 μg/mL tetracycline, 8 μg/mL gentamicin, and >1024 μg/mL ampicillin. For E. coli strain Mu14S, >64 μg/mL tetracycline, 8 μg/mL gentamicin, and >1024 μg/mL ampicillin. For K. pneumoniae strain Mu55, >64 μg/mL tetracycline, 1 μg/mL gentamicin, and >1024 μg/mL ampicillin. For K. pneumoniae strain Mu670, 2 μg/mL tetracycline, 4 μg/mL gentamicin, and >1024 μg/mL ampicillin.

E. coli Mu890 = assay: MIC by broth microdilution AST; conditions: E. coli Mu890
Procedure: as §1, §2

A. nosocomialis M2 = assay: MIC by broth microdilution AST
Procedure: as §1, §2

K. pneumoniae Mu670 = assay: MIC by broth microdilution AST
Procedure: as §1, §2

E. coli Mu14S = assay: MIC by broth microdilution AST
Procedure: as §1, §2

[1] = test system: K. pneumoniae strain Mu670; assay: FAST flow cytometry AST with PB-sQF, bacteria recovered from 10% human blood; conditions: ~9 CFU/mL after 10-fold dilution
Procedure: as §1
(§3) To simulate a blood specimen from a patient with bacteremia, the isolates were grown, diluted to the desired CFU/mL in blood (ZenBio, Research Triangle Park, NC) and saponin was added to achieve the final diluted sample. Initial bacterial cultures were prepared using Luria-Bertani (LB) broth for (E. coli) or cation-adjusted Mueller-Hinton broth (CAMHB). The fresh bacterial cultures started from ˜0.05 optical density (OD) by inoculating a 6-mL fresh growth medium with overnight culture were grown in an incubator shaker (MaxQ 4000, Thermal Fisher Scientific, Waltham, MA) at 37° C. and 225 rpm. After the culture reached mid-log phase, bacteria were collected and diluted into ˜10 CFU/mL through serial 10-fold dilutions. Bacterial densities were determined by plating onto LB plates. The final 10-fold dilution was performed by adding 500 μL of 100 CFU/mL into 4500 μL of 10% human blood in medium.
(§4) A 2.5% (w/v) of saponin solution was prepared, sonicated (Branson 2510, Emerson, St. Louis, MO) for 20 minutes and spun down with a clinical centrifuge (Centrific Model 228, Fisher Scientific, Waltham, MA) for 4 minutes. The supernatant cleared of particulates was collected. 500 μL of 2.5% saponin was then added to the 5 mL of 10% human blood sample with ˜10 CFU/mL, described above and the mixtures were shaken at 300 rpm for 15 minutes at 37° C. After the saponin treatment, the bacteria were pelleted and washed with 2 mL of phosphate buffered saline (PBS) (Life Technologies, Carlsbad, CA) using a clinical centrifuge for 2 minutes. Bacterial growth medium (2.5 mL) was then added to the tube and incubated for 2 hours at 37° C. and 225 rpm.
(§5) After the 2-hour incubation, 500-μL aliquots of the suspension were added to each of 4 wells in a 12-well microtiter plate that contained 500 μL of growth medium with or without antibiotic at 2-fold of specified concentrations. The plate was then incubated at 37° C. for 3 hours. Bacteria were collected by centrifugation (Centrifuge 5417R, Eppendorf) and resuspended in 200 μL of PBS for flow cytometry detection. To ensure each clinical isolate was tested at its MIC values of the tested antibiotics, the initial bacterial cultures at the 1000 CFU/mL dilution were also tested for each experiment (FIGS. 4A-4F, 5A-5F, 7A-7F, 8A-8F, and 9A-9F), confirming that the antibiotic concentrations indeed inhibited bacterial growth.
(§6) Cytometric data were collected by BD LSRFortessa flow cytometer (Becton Dickinson, Franklin Lake, NY) equipped with a 100 mW, 488 nm laser for the scatter signal. […]

E. coli strain Mu14S = assay: as above
Procedure: as §1, §3, §4, §5, §6

[2] = test system: K. pneumoniae strain Mu55; assay: as above; conditions: ~8 CFU/mL after 10-fold dilution
Procedure: as §1, §3, §4, §5, §6

E. coli strain Mu890 = assay: as above
Procedure: as §1, §3, §4, §5, §6

[3] = class according to 2016 CLSI handbook
[4] = microdilution from pure culture

## Gentamicin
K. pneumoniae Mu55; [3]
  MIC (S/I/R): (S)
K. pneumoniae Mu55; [4]
  MIC: 1 µg/mL
E. coli Mu890; [3]
  MIC (S/I/R): (I)
E. coli Mu890; [4]
  MIC: 8 µg/mL
A. nosocomialis M2; [3]
  MIC (S/I/R): (S)
A. nosocomialis M2; [4]
  MIC: 2 µg/mL
K. pneumoniae Mu670; [3]
  MIC (S/I/R): (S)
K. pneumoniae Mu670; [4]
  MIC: 4 µg/mL
E. coli Mu14S; [3]
  MIC (S/I/R): (I)
E. coli Mu14S; [4]
  MIC: 8 µg/mL
[1]
  PB-sQF FAST result: appropriate
E. coli strain Mu14S; Mu14S treated at the MIC
  FAST antibiotic-induced scatter signal change: exhibits growth inhibition
E. coli strain Mu14S; Mu14S, 1×MIC, triplicate data
  PB-sQF fold distance average versus the paired-control: clear differences
[2]
  PB-sQF FAST result: appropriate
E. coli strain Mu890; Mu890, beyond the 99% confidence level
  PB-sQF fold distance-based FAST result: effective
E. coli strain Mu890; Mu890 treated at the MIC, 3-hr incubation, vs paired no-antibiotic control
  FAST antibiotic-induced scatter signal change: effective growth inhibition
